In paper PMC9921273, “Omega-3 PUFAs as a Dietary Supplement in Senile Systemic Amyloidosis” (Nutrients, 2023) one finds IC50 data, which are given here for 2 compounds.

Experiment [1] addresses T1, transthyretin (wt-TTR) (Homo sapiens, UniProt P02766). As to the kind of experiment: ANS fluorescence displacement binding assay (also turbidimetric and ThT fibril formation assays). Also on record: wt-TTR tetramer, human plasma.
Experiment [2] has as its target T1, transthyretin (wt-TTR). As to the kind of experiment: ANS fluorescence displacement binding assay (also turbidimetric fibril formation assay). Also on record: wt-TTR tetramer, human plasma.

As for `CC/C=C\C/C=C\C/C=C\C/C=C\C/C=C\C/C=C\CCC(=O)O` [DHA, docosahexaenoic acid], the IC50 (in general, the concentration needed to halve the response being measured) at transthyretin (wt-TTR) [1] was 12.1 ± 0.07 µM.

In turn, `CC/C=C\C/C=C\C/C=C\C/C=C\C/C=C\CCCC(=O)O` [EPA, eicosapentaenoic acid] registered a half-maximal inhibitory concentration (IC50) on transthyretin (wt-TTR) [2] of 13 ± 0.08 µM.
